This note sets out measurements from patent publication US20260376293A1, “METHODS FOR STUDYING GPR158 PHARMACOLOGY AND IDENTIFICATION OF ITS LIGANDS” (UNIVERSITY OF FLORIDA RESEARCH FOUNDATION, INCORPORATED, priority 2022, published 2026).

This test deals with T1, GPR158 (Homo sapiens, UniProt Q5T848).
T1 sequence (Q5T848 24-1215): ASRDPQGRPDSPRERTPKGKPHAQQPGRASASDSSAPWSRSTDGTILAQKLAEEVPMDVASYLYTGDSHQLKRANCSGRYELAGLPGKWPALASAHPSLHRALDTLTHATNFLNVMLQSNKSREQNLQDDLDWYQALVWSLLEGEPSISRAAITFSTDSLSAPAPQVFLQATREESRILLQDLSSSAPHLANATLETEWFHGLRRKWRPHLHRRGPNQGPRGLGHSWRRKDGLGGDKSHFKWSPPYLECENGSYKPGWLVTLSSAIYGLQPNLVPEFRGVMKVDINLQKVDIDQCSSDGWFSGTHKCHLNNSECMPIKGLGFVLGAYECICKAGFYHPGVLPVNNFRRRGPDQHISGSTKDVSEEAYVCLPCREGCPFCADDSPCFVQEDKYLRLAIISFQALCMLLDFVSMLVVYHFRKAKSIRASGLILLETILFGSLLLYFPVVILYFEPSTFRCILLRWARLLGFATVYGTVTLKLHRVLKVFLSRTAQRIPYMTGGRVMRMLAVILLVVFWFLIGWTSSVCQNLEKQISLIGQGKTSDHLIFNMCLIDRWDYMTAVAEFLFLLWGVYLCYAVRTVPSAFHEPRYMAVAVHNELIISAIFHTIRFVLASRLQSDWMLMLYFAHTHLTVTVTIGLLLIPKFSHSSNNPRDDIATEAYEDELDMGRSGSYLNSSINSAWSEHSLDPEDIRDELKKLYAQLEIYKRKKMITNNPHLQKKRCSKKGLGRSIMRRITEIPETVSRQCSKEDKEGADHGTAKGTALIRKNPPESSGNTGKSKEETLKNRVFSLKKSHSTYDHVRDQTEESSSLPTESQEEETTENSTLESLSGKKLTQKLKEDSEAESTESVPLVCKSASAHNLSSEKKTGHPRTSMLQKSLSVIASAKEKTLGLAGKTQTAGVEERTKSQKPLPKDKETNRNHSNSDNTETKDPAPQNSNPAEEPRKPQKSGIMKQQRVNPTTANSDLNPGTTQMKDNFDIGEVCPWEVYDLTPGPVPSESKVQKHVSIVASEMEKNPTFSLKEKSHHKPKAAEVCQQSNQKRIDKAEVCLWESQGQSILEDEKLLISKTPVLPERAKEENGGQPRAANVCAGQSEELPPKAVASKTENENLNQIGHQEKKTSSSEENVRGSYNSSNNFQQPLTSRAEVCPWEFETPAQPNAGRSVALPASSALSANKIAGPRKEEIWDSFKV
Briefly: BRET cAMP assay in HEK293 cells expressing GPR158. The class given is cell-based. On the set-up: expressed in transfected cells; host or cells: HEK293FT. As to the method:
FIGS. 2A-2C. Taurine signals through GPR158 to regulate cAMP. A) Time course of taurine (100 μM) effect on cAMP concentration in HEK293 cells. Cells were transfected with indicated constructs and cAMP was measured by the BRET assay. B) Quantification of taurine effect on maximal amplitude of the cAMP response. Data shown represent mean±s.e.m. determined from 3-9 independent experiments performed in triplicate. ****p<0.001 (one-way ANOVA). Columns with no fill (Ctrl), columns with angled-line fill (Taurine) C) Comparison of glycine and taurine effects on GPR158-mediated changes in cAMP response. Glycine or taurine was applied to HEK293 cells expressing either GPR158 alone or with RGS7/Gβ5 and the CAMP change was subtracted from the background response in control cells not expressing GPR158. Data shown represent mean±s.e.m. determined from 3 independent experiments performed in triplicate. *p<0.05, ***p<0.01, ns=p>0.05 (one-way ANOVA) Columns with no fill (Ctrl), columns with short-line fill (Glycine), columns with angled-line fill (Taurine).
HEK293FT cells were seeded in a white flat-bottom 96 well plate (Greiner Bio-One) at 50,000 cells per well and transiently transfected using Metafectene Pro with the manufacturer instruction. 24 h after transfection in DMEM complete medium supplemented of 0.1% of Matrigel (Corning), cells were washed with BRET buffer (Dulbecco's Phosphate-Buffered Saline (PBS) containing 0.5 mM MgCl2 and 0.1% glucose). The RLuc (Renilla luciferase) substrate, coelenterazine H (Research Products International Corp, IL), were diluted at 5 μM in BRET buffer and added to cells. BRET measurements were made in living cells using a microplate reader (PHERAstar FSX; BMG Labtech) equipped with two emission photomultiplier tubes. All measurements were performed at 37 °C.
HEK293FT cells or U87 MG cells (ATCC HTB-14) when indicated were co-transfected with the CAMP sensor Camyel and with untagged receptors (respectively: empty vector, GPR158). BRET ratio was determined by calculating the ratio of the light emitted by RLuc (475 nm with a 30 nm band path width) over the light emitted by the Venus (535 nm with a 30 nm band path width) in order to measure an increase of the signal when cAMP increase. ΔBRET was calculated by subtracting the ctrl cell BRET result from GPR158 expressing cells BRET result in order to get specifically the signal from GPR158 removing all the non-specific signal. Finally, netBRET was calculated by subtraction of the baseline value (basal BRET ratio) recorded prior to glycine stimulation from the experimental BRET signal values and the resulting difference (netBRET ratio).

Turning to `NCCS(=O)(=O)O` [taurine, 2-aminoethanesulfonic acid], the “type of agonism on GPR158” value is reported as “partial agonist”. In addition, for the setting “HEK293 cells expressing GPR158, taurine 100 μM”, the cAMP change result is “significant decrease in cAMP levels”. Also, the “cAMP change in parental cells” value (HEK293 cells without GPR158, taurine 100 μM) is on record as “did not produce a response”. Besides, the “cAMP change with co-expressed RGS7/Gβ5” value (HEK293 cells, GPR158 + RGS7/Gβ5, taurine 100 μM) is “potentiated by co-expressing RGS7/Gβ5”. Besides, the “GPR158-mediated suppression of cAMP compared with glycine” value (HEK293 cells, direct comparison) is “weaker than the effect of glycine”.
